According to a melting point compilation (Tetko et al.; mined from patent text by program, amines drawn as free bases though some values may be those of a salt):

| Compound | melting point |
| --- | --- |
| CCc1cc(=O)c2nc(Cl)ccc2[nH]1 | 269 to 270 °C |
| CC(C)(C)c1cc(SC2(Sc3cc(C(C)(C)C)c(O)c(C(C)(C)C)c3)CCCCCC2)cc(C(C)(C)C)c1O | 144 to 146 °C |
| CC#CCOc1ccc(S(=O)(=O)N(C)[C@H]2CCC[C@H]2C(=O)NO)cc1 | 160 to 164 °C |
| Cn1c(C(F)(F)F)cc(=O)n(-c2c(O)cc(F)cc2F)c1=O | 195 to 196 °C |
| C#CCCCC(=O)Nc1nc2nn(C)cc2c2nc(-c3ccco3)nn12 | 210 to 216 °C |
| C#Cc1cccc(-c2cccnc2F)c1 | 45 to 47 °C |
| CCn1nc2c(N)nc3ccccc3c2c1CC(C)(C)O | 223 to 225 °C |
| CSc1cccc(C2CC(=O)C=C(O)C2)c1 (configuration not stated) | 141 °C |
| CN1CCC(c2cc3c(N(C)C)cccc3c(=O)[nH]2)CC1 | 216 to 218 °C |
| C(=Cc1ccc(-c2ccc(OCCCN3CCCCC3)cc2)cc1)CN1CCCCC1 | 100 to 105 °C |
| COCCOc1cc(Cc2cnc(N)nc2N)cc2c1NCCC2 | 149 to 151 °C |
| O=C1Nc2ccccc2Sc2cc(C(F)(F)F)ccc21 | 216 to 217 °C |
| C=CCNC(=O)N1CC(OCc2ccc(C(F)(F)F)cc2)C1 | 120 °C |
| O=C(NCO)N1CC(Oc2cccc(C(F)(F)F)c2)C1 | 113 to 115 °C |
| O=C(O)C1=Cc2cc(Cl)c(I)cc2OC1C(F)(F)F (configuration not stated) | 225 to 226 °C |
| CN[C@@H]1CN(c2c(F)cc3c(=O)c(C(=O)O)cn([C@@H]4C[C@@H]4F)c3c2C)C[C@@H]1C(C)C | 168 to 171 °C |
| Clc1ccc2c(c1)oc1cc(OCCn3ccnc3)ccc12 | 150 to 151 °C |
| CC(C)(C)N=NC(C)(C)SC#N | 29 to 31 °C |
| CCOCc1nc2c(N)nc(C)c(C)c2n1CCCCS(=O)(=O)NC | 194 to 196 °C |
| O=C(NNc1ccc([N+](=O)[O-])cc1)c1ccc(Cl)cc1 | 246 to 248 °C |
| CC(=O)Oc1cccc(Br)c1 | 33 to 40 °C |

| Compound | melting point |
| --- | --- |
| Clc1cccc(C2CCN(CCCOc3ccc4scnc4c3)CC2)c1Cl | 114 to 116 °C |
| N[C@@H](Cc1ccc(C(F)(F)F)cc1)[C@H](O)c1ccc(F)c(F)c1 (racemic) | 99 to 100 °C |
| O=C1OCCC1=Cc1ccccc1OCC1CO1 (configuration not stated) | 68 to 70 °C |
| O=C(c1ccc(F)cc1)C1CC2CCN1CC2 (configuration not stated) | 68 to 69 °C |
| CC(=O)Oc1ccccc1C(=O)Nc1cc(Cl)c(OC(C)=O)c(Cl)c1 | 154 to 156 °C |
| COc1ccc2c(c1)C(C(=O)N(Cc1ccc(Br)cc1)c1ccc(C(C)C)cc1)CCC2 (configuration not stated) | 85 °C |
| O=C1NCCc2[nH]c3ccc(F)cc3c21 | 242 to 245 °C |
| NC(=O)c1ccc(O)c(I)c1 | 90 to 95 °C |
| Cc1nc(Cl)c([N+](=O)[O-])c(NCCNC(=O)OC(C)(C)C)c1C | 110 to 112 °C |
| CC1CCCC(Cl)(Cl)C(=O)N1 (configuration not stated) | 132 to 134 °C |
| COc1ccc(N(Cc2cccc3ccccc23)c2ccccc2)cc1 | 154 to 159 °C |
| COc1cc2ncnc(N3CCN(C(=S)Nc4cc(O)nc(O)n4)CC3)c2cc1OC | 283 to 285 °C |
| O=[N+]([O-])c1cccc(C(F)(F)F)c1NCC(O)CO (configuration not stated) | 117 °C |
| CCOC(=O)COC1CCC2C3CCC4NC(=O)CCC4(C)C3CCC12C (configuration not stated) | 170 to 172 °C |
| Cc1cc(=O)oc2cccc(SC(=O)N(C)C)c12 | 129 °C |
| Cc1cc(C)cc(-c2cn(C)cc(-c3cccc(C(F)(F)F)c3)c2=O)c1 | 160 to 163 °C |
| S=C(Nc1ccc(Nc2ccccc2)cc1)Nc1ccc(Nc2ccccc2)cc1 | 164 to 171 °C |
| CCN(CC)CCN1C(=O)c2cc(N)cc3cc([N+](=O)[O-])cc(c23)C1=O | 174 °C |
| CCCOc1c([N+](=O)[O-])cccc1[N+](=O)[O-] | 119 to 120 °C |
| COC(=O)c1cc2c(Cl)cc(F)c(-n3c(=O)cc(C(F)(F)F)n(C)c3=O)c2o1 | 194 to 196 °C |
| COC(=O)CN1Cc2c([nH]c3ccccc23)C1=O | 215 to 217 °C |

| Compound | melting point |
| --- | --- |
| O=c1[nH]c(=O)n(C2CC(Br)C(CBr)O2)cc1C=CBr (configuration not stated) | 153 °C |
| N#Cc1cncc(NCc2ccccc2)c1 | 131 °C |
| CCCc1c(O)c(Cl)cc(C(C)=O)c1O | 96 °C |
| CC(C)OC(=O)n1cc(F)c(N)nc1=O | 217 to 219 °C |
| CC(C)=Nn1c(S)nnc1-n1cccn1 | 132 to 138 °C |
| CCOC(=O)C(Cl)=Cc1cc(NC(=O)C2=C(C(N)=O)CCCC2)ccc1Cl | 185 to 186 °C |
| CCSC1=NCC(=O)N1c1cc(Cl)ccc1OC | 113 to 115 °C |
| CCCCCCCCCCCCS(=O)(=O)CCOc1ccc(C/C=C(\OC(C)=O)C(F)(F)F)cc1 | 48 to 49 °C |
| O=CN1CCC(c2noc3cc(Cl)ccc23)CC1 | 114 to 115 °C |
| CCOC(=O)COc1ccc2c(c1)C[C@H](NC(=O)OC(C)(C)C)CC2 | 113 to 115 °C |
| Fc1ccc(-c2ccn(C3CN4CCC3CC4)c2-c2ccncc2)cc1 (configuration not stated) | 229 to 230 °C |
| NCC1(Cc2ccc(CC(=O)O)cc2)CCC1 | > 255 °C |
| COC(=O)c1ccc(C(=O)c2ccc(NC(C)=O)cc2)cc1 | 212 °C |
| O=C(OCP(=O)(C1CCCCC1)C1CCCCC1)c1ccc(C(=O)OCP(=O)(C2CCCCC2)C2CCCCC2)cc1 | 226 to 228 °C |
| CC(=O)NC(=N[N+](=O)[O-])NCc1ccc(Cl)nc1 | 125 to 126 °C |
| Nc1[nH]c(=O)c(C(=O)CCC2CCN(CC3CCCCC3)CC2)cc1Cl | 164 °C |
| O=C1COCc2cc(Br)ccc21 | 144 to 146 °C |
| CC(C)N(C(=O)C(F)(F)F)C(C#N)c1ccc(Cl)cc1 (configuration not stated) | 78.5 to 79.5 °C |
| O=C1CCC(=O)N1CC#CCn1ccnc1 | 120 to 122 °C |
| CC(C)(C)OC(=O)N[C@H](CCCNC(N)=N[N+](=O)[O-])C(=O)NCc1ccc(CNC(N)=O)cc1 | 172 °C |
| CN1CCC(c2c[nH]c3ccc(-n4ccnc4)cc23)CC1 | 217 °C |

Continued, values first:

| melting point | Compound |
| --- | --- |
| 146 to 148 °C | COC(=O)Cc1cc(C(=O)c2ccc(C#Cc3ccccc3)c(N)c2)sc1-c1ccccc1 |
| 134 to 136 °C | CC(C)(C)OC(=O)CN(Cc1ccccc1)S(=O)(=O)c1ccc2c(Cl)cnc(Cl)c2c1 |
| 74 °C | CCCCN1C(=O)CN(c2ccccc2)C1=O |
| 103 to 105 °C | O=C(Nc1ccc(Oc2ccnc(NCC3CCCO3)n2)c2ccccc12)c1cc(F)cc(N2CCOCC2)c1 (configuration not stated) |
| 219 °C | COc1ccc2cc(-c3ccc(-n4nc(C)nc4C)c(Cl)c3)c(=O)oc2c1 |
| 226 to 228 °C | Cc1c2c(nn1CCO)c(N)nc1ccccc12 |
| 173 °C | CCCCOc1ccc(S(=O)(=O)C2(C(=O)NO)CCN(Cc3ccc(OC)cc3)CC2)cc1 |
| 221 to 222 °C | COc1ccc2c(Cc3c(Cl)cncc3Cl)nn(CC(=O)O)c(=O)c2c1 |
| 168 to 170 °C | Cc1cccc(C(=O)Nc2ccc(C(=O)N3Cc4cccn4Cc4ccccc43)cc2)c1C |
| 238 to 240 °C | COC(=O)c1cc2c(O)c(C(=O)NCc3ccc(Cl)cc3)cnc2s1 |
| 135 to 137 °C | COc1ccc(C)cc1NC(=O)Nc1ccc(C2=CCN(C(=O)Nc3ccc(OCC(O)CO)cc3C(F)(F)F)CC2)cc1 (configuration not stated) |
| > 300 °C | Nc1ccc2c(=O)[nH]c(=O)n(-c3ccccc3)c2n1 |
| 223 to 225 °C | CCCc1nn2ncc(C(=O)O)c2n1Cc1ccc(-c2ccccc2-c2nc(=O)o[nH]2)cc1 |
| 105 to 109 °C | CCOC(=O)C1CN(c2cc3ccccc3c(=O)[nH]2)CCN1C (configuration not stated) |
| 212 °C | Cc1ccc2c(NCc3ccc(NC(=O)C4CCN(Cc5ccccc5)CC4)cc3)nc(Cl)nc2c1 |
| 42 to 57 °C | CC(C(=O)Oc1cc(=O)n(-c2cccc(C(F)(F)F)c2)c2ncccc12)c1ccccc1 (configuration not stated) |
| 114 to 115 °C | Cc1c(-c2ccccc2)oc2c(C(=O)OCCCBr)cccc2c1=O |
| 68 °C | CCCC[C@H]1CC[C@H](c2ccc(-c3ccc(CCc4ccc(F)cc4)cc3)c(F)c2)CC1 |
| 79 to 80 °C | COc1ccc(Cn2c(=O)cc(C(F)(F)F)n(C)c2=O)cc1 |
| 205 °C | Cn1cncc1C(O)(c1ccc(Cl)cc1)c1ccc2nc(C=O)cc(-c3cccc(Cl)c3)c2c1 (configuration not stated) |

| melting point | Compound |
| --- | --- |
| > 305 °C | Cn1c(CNC(=O)c2cc3ccccc3[nH]2)c(-c2ccccc2)c2cc(Cl)ccc2c1=O |
| 121 to 122 °C | COC(=O)NC1(c2ccccc2)CCN(Cc2ccccc2)CC1 |
| 73.8 to 76 °C | CC(C)=CCn1c(-c2ccc3c(c2)OCO3)nc2ccccc21 |
| 200 °C | O=C(Nc1ccc([N+](=O)[O-])cc1O)OCc1ccccc1 |
| 236 °C | CCCc1c(Cc2ccc(-c3ccccc3C#N)cc2)c(O)nc2ccnn12 |
| 170 to 172 °C | N#Cc1ccc(-c2ccc(OCCCC(=O)NO)cc2)cc1 |
| 135 to 137 °C | CCc1cn(C2CC(O)C(CN(C)Cc3ccccc3)O2)c(=O)[nH]c1=O (configuration not stated) |
| 230 to 233 °C | CCCNCC1CCN(c2nc3c(cc2F)c(=O)c(C(=O)O)cn3C2CC2)C1 (configuration not stated) |
| 82 to 84 °C | CCOC(=O)c1c(C(F)(F)F)nc(C)c(-c2ccccc2)c1O |
| 190 °C | CC1(C)Oc2ccc(S(=O)(=O)C(F)(F)F)cc2[C@@H](N2Cc3ccccc3C2=O)[C@@H]1O[N+](=O)[O-] (relative stereo) |
| 138 to 139 °C | Cc1ccc(CNC(=O)c2sc(N3CCN(Cc4ccccc4)C3=O)nc2C)o1 |
| 235 to 238 °C | COc1ccc(-c2cc3cc(F)c(F)cc3[nH]2)cc1NS(=O)(=O)c1cccc(N)c1 |
| 128 °C | CCOC(=O)c1cnc2c(C)cc(-c3ccc(C(F)(F)F)cc3)cn12 |
| 202 to 204 °C | CCCCOc1cc(C(=O)O)cc(N)c1C(=O)c1ccccc1 |
| 109 to 112 °C | O=C(NN=Cc1ccc2cc(OC(=O)c3ccc([N+](=O)[O-])o3)ccc2c1)OCc1ccccc1 |
| 105 to 107 °C | CCOc1cccc(CNC(=O)[C@H]2N(C(=O)[C@@H](O)[C@H](Cc3ccccc3)NC(=O)c3cccc(O)c3C)CSC2(C)C)c1 |
| 116 to 117 °C | CCC(=O)NC1=C(OCCOC)C(=O)c2ccccc2C1=O |
| 94 to 96 °C | CC(=O)NCc1ncccc1OCc1ccccc1 |
| 282 to 283 °C | Nc1c(C(=O)c2ccccc2)cnc2[nH]ncc12 |
